# Experimental data from ChEMBL document CHEMBL1667742, “Angiotensin II receptor type 1 (AT1) selective nonpeptidic antagonists--a perspective” (Bioorg Med Chem, 2010).
# Where a chain is given by its changes, count along the chain named.
# What was measured:
# [1] = tested on: Rattus norvegicus; experiment: Antihypertensive activity in conscious normotensive rat at 0.1 mg/kg after 6 hrs; format: functional
# [2] = Binding affinity to angiotensin AT1 receptor in rat lung membranes; format: cell membranes, Membrane
# [3] = tested on: Rattus norvegicus; experiment: Antihypertensive activity in conscious normotensive rat after 24 hrs; format: functional
# [4] = tested on: Rattus norvegicus; experiment: Antihypertensive activity in iv dosed renal artery ligated rat model assessed as reduction of means arterial blood pressure by 30 mm Hg; format: functional
# [5] = (§1) Displacement of radiolabeled angiotensin2 from angiotensin AT1 receptor in rat adrenal cortex membranes; format: cell membranes, Membrane
# [6] = Displacement of [125I]-Sar1Ile8-angiotensin 2 from angiotensin AT1 receptor in rat aortic smooth muscle cells
# [7] = tested on: Rattus norvegicus; experiment: Antihypertensive activity in iv dosed salt depleted SHR rat model assessed as reduction of angiotensin 2-induced response; format: functional
# [8] = tested on: Rattus norvegicus; experiment: Antihypertensive activity in iv dosed salt depleted SHR rat model assessed as reduction of angiotensin 2-induced mean arterial pressure at […]; format: functional, Artery; set-up: scale not given: the % may be the effect or the level left
# [9] = Displacement of [125I]-Sar1Ile8-angiotensin 2 from angiotensin AT1 receptor in rat adrenal cortical membranes; format: cell membranes, Membrane
# [10] = tested on: Rattus norvegicus; experiment: Inhibition of angiotensin 2-induced response in iv dosed conscious Sprague-Dawley rat; format: functional
# [11] = biological target: T1, Type-1 angiotensin II receptor (Homo sapiens, UniProt P30556); experiment: Antagonist activity at angiotensin AT1 receptor in human PLC-PRF5 cells; format: functional, cell-based
# T1 sequence (P30556 whole entry): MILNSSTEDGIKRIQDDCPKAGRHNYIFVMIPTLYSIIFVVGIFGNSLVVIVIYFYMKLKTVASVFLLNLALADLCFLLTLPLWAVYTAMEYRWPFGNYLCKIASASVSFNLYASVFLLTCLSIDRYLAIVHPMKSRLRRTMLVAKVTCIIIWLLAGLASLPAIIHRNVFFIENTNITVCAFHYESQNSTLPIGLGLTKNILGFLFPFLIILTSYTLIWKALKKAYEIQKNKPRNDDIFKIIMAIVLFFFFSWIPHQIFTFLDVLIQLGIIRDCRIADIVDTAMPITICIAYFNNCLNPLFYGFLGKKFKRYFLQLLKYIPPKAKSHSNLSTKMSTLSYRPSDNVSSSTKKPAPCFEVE
# [12] = biological target: T1, Type-1 angiotensin II receptor; experiment: Displacement of [3H]-angiotensin 2 from angiotensin AT1 receptor in human PLC-PRF5 cells; format: cell-based
# [13] = biological target: T1, Type-1 angiotensin II receptor; experiment: Antagonist activity at angiotensin AT1 receptor; format: functional
# [14] = tested on: Rattus norvegicus; experiment: Inhibition of angiotensin 2-induced response in intraduodenally dosed pithed normotensive rat; format: functional
# [15] = tested on: Rattus norvegicus; experiment: Antihypertensive activity in po dosed renal hypertensive rat model assessed as reduction of blood pressure; format: functional
# [16] = tested on: Rattus norvegicus; experiment: Antihypertensive activity in iv dosed renal hypertensive rat model assessed as reduction of blood pressure; format: functional
# [17] = species on record: Rattus norvegicus; experiment: as §1; format: cell membranes; conditions: Membrane, concentration not given here
# [18] = Oral bioavailability in dog; format: ADME, organism-based, Canis lupus familiaris; conditions: in vivo
# [19] = Oral bioavailability in cynomolgus monkey; format: ADME, organism-based, Macaca fascicularis; conditions: in vivo
# [20] = Binding affinity to angiotensin AT1 receptor in rat liver membranes; format: cell membranes, Membrane
# [21] = Oral bioavailability in rat; format: ADME, organism-based; conditions: in vivo
# [22] = tested on: Rattus norvegicus; experiment: Antihypertensive activity in conscious normotensive rat assessed as inhibition of angiotensin 2-induced pressor response at 1 mg/kg, iv after 6 hrs; format: functional
# [23] = biological target: T2, Type-1 angiotensin II receptor (Bos taurus, UniProt P25104); experiment: Displacement of radiolabeled angiotensin 2 from angiotensin AT1 receptor in bovine adrenal cortex membranes; format: cell membranes, Membrane
# T2 sequence (P25104 whole entry): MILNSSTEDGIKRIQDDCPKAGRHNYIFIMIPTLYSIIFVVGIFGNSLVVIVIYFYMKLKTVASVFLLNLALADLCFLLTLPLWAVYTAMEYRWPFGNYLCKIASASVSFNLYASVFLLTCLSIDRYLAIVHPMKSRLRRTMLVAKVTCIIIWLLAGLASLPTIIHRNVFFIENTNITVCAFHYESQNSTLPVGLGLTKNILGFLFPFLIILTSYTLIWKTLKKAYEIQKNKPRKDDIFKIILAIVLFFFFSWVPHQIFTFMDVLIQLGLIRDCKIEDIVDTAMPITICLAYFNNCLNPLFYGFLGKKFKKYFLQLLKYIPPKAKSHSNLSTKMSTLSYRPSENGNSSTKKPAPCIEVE
# [24] = biological target: T3, Type-1 angiotensin II receptor (Cavia porcellus) (UniProt Q9WV26); experiment: Antagonist activity at angiotensin AT1 receptor in guinea pig aorta assessed as reduction of angiotensin 2-induced contractile response; format: functional, tissue-based
# T3 sequence (whole entry): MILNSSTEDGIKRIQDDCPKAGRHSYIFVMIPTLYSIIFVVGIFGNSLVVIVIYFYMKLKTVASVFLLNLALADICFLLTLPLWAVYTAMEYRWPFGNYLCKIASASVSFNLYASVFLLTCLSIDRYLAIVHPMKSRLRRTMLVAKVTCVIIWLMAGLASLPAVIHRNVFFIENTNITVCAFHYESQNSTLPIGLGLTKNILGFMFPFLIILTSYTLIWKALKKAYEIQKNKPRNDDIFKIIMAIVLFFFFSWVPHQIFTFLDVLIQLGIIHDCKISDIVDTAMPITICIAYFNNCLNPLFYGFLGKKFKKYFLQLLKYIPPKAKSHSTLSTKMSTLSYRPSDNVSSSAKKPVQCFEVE
# [25] = tested on: Rattus norvegicus; experiment: Inhibition of angiotensin 2-induced response in iv dosed pithed normotensive rat; format: functional
# [26] = Displacement of [3H]-angiotensin 2 from angiotensin AT1 receptor in rat liver membranes; format: cell membranes, Membrane
# [27] = biological target: T4, Type-1 angiotensin II receptor (Oryctolagus cuniculus) (UniProt P34976); experiment: Antagonist activity at angiotensin AT1 receptor in rabbit aorta; format: functional, tissue-based
# T4 sequence (whole entry): T1 sequence (P30556 whole entry) with I2M, V49A, I254V, I270V, R272H, R311K, T349S, A353V
# [28] = tested on: Rattus norvegicus; experiment: Antihypertensive activity in iv dosed conscious rat; format: functional
# [29] = tested on: Rattus norvegicus; experiment: Antihypertensive activity in po dosed conscious rat; format: functional; conditions: read-out: ED50
structure (smiles),measurement,setting,value
CCCCc1nc(-c2ccccc2Cl)c(C(=O)O)n1Cc1ccc(-c2ccccc2-c2nn[nH]n2)cc1,Activity,[1],88%
CCCc1nc2c(C)cc(-c3nc4ccccc4n3C)cc2n1Cc1ccc(-c2ccccc2C(=O)O)cc1,Ki,[2],3.7 nM
CCCc1nn(Cc2ccccc2)c(C(=O)O)c1Cc1ccc(-c2ccccc2-c2nn[nH]n2)cc1,Activity,[3],90%
CCCCc1nc(Cl)c(C(=O)O)n1Cc1ccc(-c2ccccc2-c2nn[nH]n2)cc1 [CARBOXYLIC ACID METABOLITE],ED30,[4],0.038 mg/kg
same,IC50,[5],0.37 nM
CCCCc1nc(Cl)c(C(=O)[O-])n1Cc1cccc2c1ccn2-c1ccccc1-c1nn[n-]n1.[Li+].[Li+],Ki,[6],7.6 nM
same,ED50,[7],0.03 µmol/kg
same,Activity,[8],39%
same,Ki,[9],18.4 nM
same,ED50,[10],0.22 µmol/kg
CCCCN1CC2(CN1Cc1ccc(-c3ccccc3-c3nnn[nH]3)cc1)C(=O)CCC2=O,IC50,[11],22 nM
same,Ki,[12],25 nM
CC1CC(=O)NN=C1c1ccc2nc(C3CC3)n(Cc3ccc(-c4ccccc4-c4nn[nH]n4)cc3)c2c1 (stereo unspecified),IC50,[13],1.8 nM
same,inhibition (INH),[14],80%
CCCc1nc(CN2CCN(c3ccccn3)CC2)c(C(=O)O)n1Cc1ccc(-c2ccccc2-c2nn[nH]n2)cc1,ED50,[15],1.65 mg/kg
same,ED50,[16],0.18 mg/kg
CCCc1nc(C)n(CCO)c(=O)c1Cc1ccc(-c2ccccc2-c2nnn[nH]2)cc1,inhibition,[17],60%
CCCN(Cc1ccc(-c2ccccc2-c2nn[nH]n2)cc1)c1ncccc1C(=O)O,bioavailability,[18],> 50%
same,bioavailability,[19],> 50%
same,Ki,[20],0.76 nM
same,bioavailability,[21],> 50%
CCc1nc2c(C)cc(C)nn2c1Cc1ccc(-c2ccccc2-c2nn[nH]n2)cc1,inhibition in vivo at 1 mg/kg,[22],90%
CCCc1nc(C(C)(C)O)c(C(=O)O)n1Cc1ccc(-c2ccccc2-c2nnn[nH]2)cc1 [OLMESARTAN],IC50,[23],7.7 nM
same,pD2,[24],9.9
CCc1nc2c(C)cc(C)nc2n1Cc1ccc(-c2ccccc2S(=O)(=O)NC(=O)NCC2CC2)cc1,IC50,[20],1000 nM
same,ED50,"[14]; Rattus norvegicus, intraduodenal",0.012 mg/kg
same,ED50,[25],0.014 µmol/kg
CCc1nc(C2CC2)c(C(N)=O)n1Cc1ccc2oc(-c3ccccc3NS(=O)(=O)C(F)(F)F)c(Br)c2c1,pKi,[26],9.3
same,pKb,[27],9
CCCCc1nc2ccc(NC(=O)N(C)C(C)C)cc2c(=O)n1Cc1ccc(-c2ccccc2-c2nn[nH]n2)cc1,ED50,[28],0.25 mg/kg
same,ED50,[29],0.68 mg/kg
